Data taken from patent US20240108618A1, “KRAS G12C INHIBITOR DOSING REGIMENS” (Eli Lilly and Company, priority 2022, published 2024).
Values joined by “and” are separate entries in the source; they are usually repeats but may differ in a detail not shown here. Equal values may be shown once.

Tested on: KRAS G12C-mutant advanced solid tumors
Assay: NCT04956640 Phase 1a monotherapy clinical response (BOR, ORR, DCR, DOR, TTR, % change from baseline, treatment duration)
Assay type: in vivo, human
Parameters: key to Duration of response (months), Median / Best Response: CR: complete response; PR: partial response; uPR: a partial response pending confirmation; SD: stable disease; PD: progressive disease; NE: not estimable
Conditions: for Time to response (months), Interquartile range / Time to response (months), Median / Duration of response (months), Median / % Change from Baseline in Sum of Diameters for all Target Lesions / Best Response / Time (months) of Death / Time (months) of Partial Response - Confirmed / Time (months) of Progressive Disease / Time (months) of Partial Response - Pending Confirmation and Ongoing / Patients with best overall response of CR or PR: Phase 1a; for Duration of response (months), Median: Kaplan-Meier estimate; for % Change from Baseline in Sum of Diameters for all Target Lesions / Best Response / Time (months) of Death / Time (months) of Partial Response - Confirmed / Time (months) of Progressive Disease / Time (months) of Partial Response - Pending Confirmation and Ongoing: individual patients
Procedure: The term “BOR” as used herein refers to best overall response based on investigator assessments using RECIST criteria (version 1.1). The minimum duration for BOR of SD is at least 6 weeks after the date of first dose of study drug.
The term “DOR” as used herein refers to duration of response, wherein DOR in months is calculated as the event or censoring date minus the response start date plus 1 day divided by 30.4375.
The term “ORR” as used herein refers to objective response rate, wherein objective response rate is the proportion of patients with BOR of CR or PR. Objective response rate, unconfirmed, is the proportion of patients with BOR of CR, PR, or uPR.
The term “TTR” as used herein refers to time to response, wherein TTR in months is calculated as response start date minus first dose date plus 1 day divided by 30.4375.
NCT04956640 includes Phase 1a dose escalation (Part A of NCT04956640, see Table 3) followed by a Phase 1b dose expansion (Parts B to E of NCT04956640, see Table 4). […] Phase 1b dose expansion will include 12 cohorts (See Table 4) to further evaluate safety and clinical activity.

[1] = starting dose 50 BID, no prior KRAS G12Ci, listed as compound of Formula I
[2] = starting dose 50 BID, prior KRAS G12Ci Y, listed as compound of Formula I
[3] = starting dose 100 BID, no prior KRAS G12Ci, listed as compound of Formula I
[4] = starting dose 100 BID, prior KRAS G12Ci Y
[5] = starting dose 100 BID, prior KRAS G12Ci Y, listed as compound of Formula I
[6] = starting dose 150 BID, no prior KRAS G12Ci, listed as compound of Formula I
[7] = starting dose 150 BID, prior KRAS G12Ci Y, listed as compound of Formula I
[8] = starting dose 200 BID, no prior KRAS G12Ci, listed as compound of Formula I
[9] = starting dose 200 BID, prior KRAS G12Ci Y, listed as compound of Formula I
[10] = starting dose 50 mg BID (N = 14)
[11] = starting dose 100 mg BID (N = 24)
[12] = starting dose 150 mg BID (N = 25)
[13] = starting dose 200 mg BID (N = 12)
[14] = starting dose 50 mg BID, incl. intrapatient dose escalation
[15] = starting dose 100 mg BID, incl. intrapatient dose escalation
[16] = starting dose 150 mg BID, 11 patients with scan data
[17] = starting dose 200 mg BID, 5 patients with scan data

C=CC(=O)N1CCN2C(=O)c3cc(F)c(-c4ccc(F)c5sc(N)c(C#N)c45)c(Cl)c3OCC[C@H]2C1 (single isomer, unassigned) [Formula I]
Time to response (months), Interquartile range (Total (N = 75)): 1.45 months | Time to response (months), Median (Total (N = 75)): 1.41 months | Duration of response (months), Median (Total (N = 75)): 6.24 months | % Change from Baseline in Sum of Diameters for all Target Lesions [1]: 9.7% and −0.3% and −6.0% and −8.6% and −9.9% and −10.5% and −13.1% and −17.1% and −26.8% and −31.6% and −45.0% | Best Response [1]: PD and SD (8×) and PR Confirmed (2×) | Time (months) of Death [1]: 9.8 months and 5.7 months and 1.8 months and 7.4 months and 11.5 months | Time (months) of Partial Response - Confirmed [1]: 1.3 months and 1.2 months | Time (months) of Progressive Disease [1]: 6.7 months and 2.8 months (2×) and 1.2 months and 5.3 months and 2.7 months and 11.1 months | % Change from Baseline in Sum of Diameters for all Target Lesions [2]: −13.0% and 50.0% | Best Response [2]: SD and PD | Time (months) of Death [2]: 8.4 months and 1.8 months | Time (months) of Progressive Disease [2]: 5.6 months and 1.3 months and 1.0 months | % Change from Baseline in Sum of Diameters for all Target Lesions [3]: 0.7% and 0.5% and −4.8% and −6.0% and −8.1% and −17.3% and −21.1% and −22.4% and −22.7% and −25.1% and −29.8% and −30.0% and −32.3% (2×) and −35.4% and −51.4% and −54.0% and −54.8% and −57.1% and −84.4% | Best Response [3]: SD (10×) and PD (2×) and PR Pending (2×) and PR Confirmed (6×) | Time (months) of Death [3]: 7.0 months and 10.3 months and 7.6 months and 1.7 months | Time (months) of Partial Response - Confirmed [3]: 1.3 months and 1.4 months (4×) and 7.7 months | Time (months) of Partial Response - Pending Confirmation and Ongoing [3]: 5.5 months and 1.2 months | Time (months) of Progressive Disease [3]: 2.9 months and 2.7 months and 4.2 months and 6.9 months and 4.1 months and 1.2 months and 5.6 months and 1.3 months and 9.5 months | Time (months) of Death [4]: 4.2 months | Time (months) of Partial Response - Confirmed [4]: 3.1 months | Time (months) of Progressive Disease [4]: 2.8 months | % Change from Baseline in Sum of Diameters for all Target Lesions [5]: −4.3% and −40.0% and −44.7% | Best Response [5]: SD (2×) and PR Confirmed | Time (months) of Partial Response - Pending Confirmation and Ongoing (starting dose 150 BID, no prior KRAS G12Ci): 1.2 months | % Change from Baseline in Sum of Diameters for all Target Lesions [6]: 27.3% and 4.3% and 3.8% and 3.4% and 0.0% and −0.7% and −5.3% and −7.1% and −8.2% and −11.5% and −16.7% and −18.8% and −23.3% and −24.0% and −37.0% and −41.6% and −51.0% and −52.4% and −60.3% and −67.9% and −91.1% | Best Response [6]: PD and SD (13×) and PR Pending and PR Confirmed (6×) | Time (months) of Death [6]: 5.3 months and 4.9 months | Time (months) of Partial Response - Confirmed [6]: 1.5 months and 4.1 months and 4.2 months and 1.4 months (3×) | Time (months) of Progressive Disease [6]: 9.7 months and 6.7 months and 7.6 months and 4.1 months and 3.3 months and 1.2 months | Time (months) of Death (starting dose 150 BID, prior KRAS G12Ci Y): 3.3 months | % Change from Baseline in Sum of Diameters for all Target Lesions [7]: −0.7% and −3.3% and −25.8% and −29.7% | Best Response [7]: SD (3×) and PD | Time (months) of Progressive Disease [7]: 4.1 months and 1.2 months | Time (months) of Death (starting dose 200 BID, no prior KRAS G12Ci): 4.7 months | % Change from Baseline in Sum of Diameters for all Target Lesions [8]: −4.2% and −5.0% and −9.6% and −9.9% and −14.3% and −32.3% and −37.5% and −65.9% and −75.0% | Best Response [8]: SD (4×) and PD and PR Confirmed (4×) | Time (months) of Partial Response - Confirmed [8]: 2.8 months and 1.4 months and 1.2 months (2×) | Time (months) of Progressive Disease [8]: 2.9 months and 2.5 months and 1.3 months and 8.3 months and 7.4 months | Time (months) of Progressive Disease (starting dose 200 BID, prior KRAS G12Ci Y): 1.3 months | % Change from Baseline in Sum of Diameters for all Target Lesions [9]: 5.3% and 1.4% | Best Response [9]: PD and SD | Patients with best overall response of CR or PR [10]: 2 (14.3) N′ (%) | Time to response (months), Interquartile range [10]: 0.13 months | Time to response (months), Median [10]: 1.25 months | Duration of response (months), Median [10]: NE | Patients with best overall response of CR or PR [11]: 7 (29.2) N′ (%) | Time to response (months), Interquartile range [11]: 1.68 months | Time to response (months), Median [11]: 1.41 months | Duration of response (months), Median [11]: 5.45 months | Patients with best overall response of CR or PR [12]: 6 (24.0) N′ (%) | Time to response (months), Interquartile range [12]: 2.69 months | Time to response (months), Median [12]: 1.46 months | Duration of response (months), Median [12]: 7.21 months | Patients with best overall response of CR or PR [13]: 4 (33.3) N′ (%) | Time to response (months), Interquartile range [13]: 0.87 months | Time to response (months), Median [13]: 1.33 months | Duration of response (months), Median [13]: 6.93 months | median time to response (human, in vivo): 1.4 month | Best observed response PR (unconfirmed and confirmed), patients (other tumor types): 3 | Best observed response SD, patients (other tumor types): 6 | PR, patients (starting dose 50 mg BID): 0 | DCR [14]: 75% | ORR [14]: 0% | PD, patients (starting dose 100 mg BID): 2 (2 PANC) | DCR [15]: 80% | ORR [15]: 40% | DCR [16]: 90.9% | ORR [16]: 18.2% | DCR [17]: 100% | ORR [17]: 20%
